Values after ≈ are worked out from the molar mass of the structure shown. Read-outs that look alike come from different tables or passages of the source.
Experiments:
[1] = tested on: Legionella pneumophila (isolated from bathtub water of hot spring); type: cell-based; details: 12 ppm, common logarithm
[2] = tested on: Lactobacillus rhamnosus (IFO 3532); experiment: antibacterial activity to hiochi lactobacteria, microorganism D; type: cell-based; details: five days; for Growth Turbidity (OD600): control 0.35
Method: The testing microorganism was subjected to a stationary incubation for five days in an SI medium (Japan Brewery Association) containing 10% of ethanol to give a seed microorganism. The seed microorganism (0.1%) was added to 100 ml of 10% ethanol-containing SI medium to which the cyclopentenone was added in an amount of 0, 25, 50, 75 or 100 μg/ml (in terms of final concentration), then a stationary incubation was conducted for five days and the turbidity was measured. In measuring the turbidity, the value of OD600 was measured using an absorbance meter. A value of OD600 of the medium to which no testing microorganism was inoculated was deducted from the above value and this (growth turbidity) was used for the growth of the tested microorganism.
The tested microorganisms were as follows. Thus, Lactobacillus fructivorans (IFO 13118) (testing microorganism A), Lactobacillus fructivorans (JCM 1198) (testing microorganism B) and Lactobacillus homohiochii (IFO 13120) (testing microorganism C) as true hiochi bacteria while Lactobacillus rhamnosus (IFO 3532) (testing microorganism D) was used as hiochi lactobacteria.

[3] = tested on: Bacillus subtilis (IFO 3034); experiment: growth turbidity, microorganism (17); type: cell-based; details: 8 h, control 267
Text: (§1) They were testing microorganism (13): Escherichia coli HB101 (ATCC 33694); testing microorganism (14): Salmonella typhimurium LT-2 (ATCC 27106); testing microorganism (15): Pseudomonas aeruginosa (IFO 3080); testing microorganism (16): Staphylococcus aureus 3A (NCTC 8319); testing microorganism (17): Bacillus subtilis (IFO 3034); and testing microorganism (18): Streptococcus mutans (GS5; stored at National Institute of Health).
(§2) The testing microorganisms were subjected to a seed culture overnight in an L-broth (1% tryptone, 0.5% yeast extract and […]; pH 7.0). The seed culture (5 μl) was inoculated to a medium to which 25-200 μg/ml of cyclopentenone was added to 5 ml of L-both and also to a medium to which nothing was added and a shake incubation was conducted at 37° C. to measure the growth. At the initiation of the incubation and also at eight hours thereafter, turbidity of the culture was measured using a Fuji Digital Turbidimeter (sold from Fuji Kogyo KK; manufactured by Akiyama Denki Seisakusho) under the condition that the adjusted scale was 82.3 and the growth of the tested microorganism was measured from the value (growth turbidity) obtained by deducting the turbidity at the initiation of incubation from that after eight hours. Incidentally, in the case of the testing microorganism (18), a brain heart infusion was used instead of L-broth.

[4] = tested on: Candida albicans TIMM 0136; experiment: antimicrobial activity to fungi; type: cell-based; details: high concentrations
[5] = tested on: Helicobacter pylori strains NCTC 11637 (ATCC 43504), 206 and 3401; experiment: MIC against Helicobacter pylori strains; type: cell-based; details: pH 6.0, 37° C., 3-4 days, all strains tested, read-out: MIC (90% or more inhibition)
Method: (4) As to Helicobacter pylori strains, a standard strain NCTC 11637 (ATCC 43504) and clinically isolated strains from human stomach (206 and 3401; both stored at Department of Bacteriology, Hyogo Medical College) were used. Each strain was subjected to a shake incubation at 37° C. under a slightly aerophilic condition using an Aneropack Campiro (manufactured by Mitsubishi Gas Chemical) in a Brucella Broth Medium (manufactured by BBL) containing 7% of horse serum (manufactured by Bio Whittaker). The microorganism in a logarithmic growth phase was diluted with a Brucella Broth and used for the test. A 24-well plate (manufacturedby Falcon) was used for the experiments. The cyclopentenone was charged at the rate of 0.1 ml (1,000 μg)/well, subjected to a two-step dilution using PBS and immobilized by adding 0.9 ml/well of a medium [a Brucella agar medium (pH 6.0) containing 7% of horse serum (manufactured by BBL)]. The Brucella agar medium was previously adjusted to pH 6.0 with HCl and was used for the experiments. Each microorganism was inoculated at the rate of about 10^4 /50 μl/well. […] The amount of a sample (μg/ml) showing 90% or more inhibition was defined as the MIC.

IMC = experiment: life-prolonging effect, IMC; type: in vivo, female mice of CDF1 strain; details: intraperitoneal tumor
Sarcoma-180 = experiment: life-prolonging effect, subcutaneous Sarcoma-180; type: in vivo, female mice of ICR strain; details: about 80 mg/kg/day in drinking water, 40th day; control two out of eight
Method: (2) Sixteen female mice of ICR strain of six weeks age (body weight: about 26 g) were used. Sarcoma-180 (5.5×10^6 cells/mouse) was subcutaneously injected into abdomen whereupon a control group (8 mice) and a group administered with the cyclopentenone (8 mice) were made.
The cyclopentenone was diluted with tap water and freely given to the cyclopentenone-administered group to make the dose of the cyclopentenone about 80 mg/kg/day using a water-supplying bottle. Tap water was similarly given to the control group. In both groups, feed was freely given during the course of the experiment.

[6] = tested on: Escherichia coli HB101 (ATCC 33694); experiment: growth turbidity, microorganism (13); type: cell-based; details: 8 h, control 222
Text: as §1, §2

EAC = experiment: life-prolonging effect, EAC; type: in vivo, female mice of DDY strain; details: intraperitoneal tumor
[7] = tested on: cancer cells such as HL-60, MOLT-3, A-549, WI-38VA13, Hep G2, HCT 116, SW 480, WiDr, AGS and myeloma cells; experiment: cell growth suppressing, anticancer and apoptosis-inducing action to cancer cells; type: cell-based, human
Meth A cells = experiment: anticancer action to solid cancer, Meth A; type: in vivo, female BALB/c mice; details: 5 mg/kg/day s.c., five days
Method: The cyclopentenone mentioned in Example 3-(1) was diluted with a physiological saline solution to certain concentrations and the following tests were conducted.

## O=C1C=CC(O)C1O (stereo not shown) [the cyclopentenone, 4,5-dihydroxy-2-cyclopenten-1-one]
[1]; 16 h, 0 ppm 7.4
  Numbers of Tested Microorganism Cells after Incubation: 6.1 log10 CFU/mL
[1]; 96 h, 0 ppm 8.6
  Numbers of Tested Microorganism Cells after Incubation: 8.6 log10 CFU/mL
[2]; 25 μg/ml
  Growth Turbidity (OD600): 0.04
[2]; 50 μg/ml
  Growth Turbidity (OD600): 0.01
[2]; 75 μg/ml
  Growth Turbidity (OD600): 0
[2]; Lacticaseibacillus rhamnosus, IFO3532, 120 h, read-out: concentration completely inhibiting growth
  MIC: 75 µg/mL (≈ 657 µM)
[3]; 25 μg/ml
  Growth Turbidity: 145
[3]; 50 μg/ml
  Growth Turbidity: 9
[3]; 100 μg/ml
  Growth Turbidity: 0
[3]; 200 μg/ml
  Growth Turbidity: 0
[4]
  antimicrobial activity: antimicrobial activity at high concentrations
[5]
  MIC: 32 µg/mL (≈ 280 µM)
IMC
  increase in life span: 188%
IMC; control 10.8 days
  mean survival days: 20.3 days
Sarcoma-180
  numbers of living mice (out of eight): seven
[6]; 25 μg/ml
  Growth Turbidity: 0
[6]; 50 μg/ml
  Growth Turbidity: 0
[6]; 100 μg/ml
  Growth Turbidity: 0
[6]; 200 μg/ml
  Growth Turbidity: 0
EAC
  increase in life span: 255%
EAC; control 15.8 days
  mean survival days: 40.3 days
[7]
  apoptosis-inducing action to cancer cells: apoptosis-inducing action
  cell growth suppressing action and anticancer action: cell growth suppressing action and anticancer action
Meth A cells
  Inhibiting Rate: 100.0%
Meth A cells; two weeks, n=8, control 1.41 ± 0.55
  Tumor Weight (average ± SD): 0.00 ± 0.00 g
